Calls of active or inactive are those of the source. The rule behind the calls is not given here.
Key:
[1] = tested on: MDA-MB-231; experiment: Induction of apoptosis in human MDA-MB-231 cells assessed as increase in cleave caspase-7 level up to 10 uM measured after 24 hrs by Western blot analysis; type: functional, cell-based
[2] = tested on: Raji; experiment: Potency index, ratio of SAHA IC50 to compound IC50 for human Raji cells; type: functional
[3] = tested on: MDA-MB-231; experiment: Induction of apoptosis in human MDA-MB-231 cells assessed as necrotic cells at 10 uM after 48 hrs by Annexin V-FITC/propidium iodide staining based flow cytometry (reference value: 0.024%); type: functional
[4] = tested on: U-937; experiment: Antiproliferative activity against human U937 cells after 72 hrs by MTT assay; type: functional, cell-based; settings: U-937, 72 h
[5] = tested on: MDA-MB-231; experiment: Induction of apoptosis in human MDA-MB-231 cells assessed as reduction in full length PARP level measured after 24 hrs by Western blot analysis; type: functional, cell-based
[6] = tested on: MDA-MB-231; experiment: Induction of apoptosis in human MDA-MB-231 cells assessed as increase in cleave caspase-9 level at 10 uM measured after 24 hrs by Western blot analysis; type: functional, cell-based
[7] = tested on: MDA-MB-231; experiment: Induction of apoptosis in human MDA-MB-231 cells assessed as late apoptotic cells at 5 uM after 48 hrs by Annexin V-FITC/propidium iodide staining based flow cytometry (reference value: 3.82%); type: functional
[8] = tested on: MDA-MB-231; experiment: Induction of apoptosis in human MDA-MB-231 cells assessed as viable cells at 5 uM after 48 hrs by Annexin V-FITC/propidium iodide staining based flow cytometry (reference value: 94.9%); type: functional; settings: MDA-MB-231, 48 h, read-out: Activity
[9] = tested on: MDA-MB-231; experiment: Induction of apoptosis in human MDA-MB-231 cells assessed as early apoptotic cells at 2.5 uM after 48 hrs by Annexin V-FITC/propidium iodide staining based flow cytometry (reference value: 1.27%); type: functional
[10] = tested on: MDA-MB-231; experiment: Induction of apoptosis in human MDA-MB-231 cells assessed as necrotic cells at 5 uM after 48 hrs by Annexin V-FITC/propidium iodide staining based flow cytometry (reference value: 0.024%); type: functional
[11] = tested on: MDA-MB-231; experiment: Induction of apoptosis in human MDA-MB-231 cells assessed as early apoptotic cells at 10 uM after 48 hrs by Annexin V-FITC/propidium iodide staining based flow cytometry (reference value: 1.27%); type: functional
[12] = target: Histone deacetylase 1 (Homo sapiens, UniProt Q13547); experiment: Inhibition of HDAC1 (unknown origin) using acetylated peptide substrate preincubated for 15 mins followed by substrate addition measured after 60 mins by fluorescence analysis
[13] = species: Homo sapiens; experiment: Inhibition of HDAC in human MDA-MB-231 cells assessed as increase in hyperacetylation of histone H4K8 level up to 10 uM after 24 hrs by Western blot analysis; type: cell-based
[14] = tested on: MCF-10A; experiment: Antiproliferative activity against human MCF10A cells after 72 hrs by MTT assay; type: cell-based
[15] = tested on: MDA-MB-231; experiment: Decrease in BRCA1 protein level in human MDA-MB-231 cells up to 10 uM measured after 24 hrs by Western blot analysis; type: functional, cell-based
[16] = tested on: MDA-MB-231; experiment: Induction of apoptosis in human MDA-MB-231 cells assessed as viable cells at 10 uM after 48 hrs by Annexin V-FITC/propidium iodide staining based flow cytometry (reference value: 94.9%); type: functional; settings: MDA-MB-231, 48 h, read-out: Activity
[17] = target: Poly [ADP-ribose] polymerase 2 (Homo sapiens, UniProt Q9UGN5); experiment: Inhibition of recombinant human N-terminal GST-tagged PARP2 (2 to 583 residues) expressed in baculovirus infected Sf9 cells using biotinylated substrate after 1 hr by UV/Vis spectrophotometric analysis
[18] = tested on: T47D; experiment: Antiproliferative activity against human T47D cells after 72 hrs by MTT assay; type: functional, cell-based
[19] = tested on: MDA-MB-231; experiment: Induction of apoptosis in human MDA-MB-231 cells assessed as necrotic cells at 2.5 uM after 48 hrs by Annexin V-FITC/propidium iodide staining based flow cytometry (reference value: 0.024%); type: functional
[20] = tested on: MDA-MB-231; experiment: Induction of apoptosis in human MDA-MB-231 cells assessed as late apoptotic cells at 2.5 uM after 48 hrs by Annexin V-FITC/propidium iodide staining based flow cytometry (reference value: 3.82%); type: functional
[21] = tested on: MCF7; experiment: Antiproliferative activity against human MCF7 cells after 72 hrs by MTT assay; type: functional, cell-based; settings: MCF7, 72 h
[22] = target: Poly [ADP-ribose] polymerase 1 (Homo sapiens, UniProt P09874); experiment: Inhibition of recombinant full length human N-terminal GST-tagged PARP1 expressed in baculovirus infected Sf9 cells using biotinylated substrate after 1 hr by UV/Vis spectrophotometric analysis
[23] = tested on: MDA-MB-231; experiment: Induction of apoptosis in human MDA-MB-231 cells assessed as late apoptotic cells at 10 uM after 48 hrs by Annexin V-FITC/propidium iodide staining based flow cytometry (reference value: 3.82%); type: functional
[24] = tested on: MDA-MB-231; experiment: Decrease in RAd51 protein level in human MDA-MB-231 cells up to 10 uM measured after 24 hrs by Western blot analysis; type: functional, cell-based
[25] = tested on: HeLa; experiment: Antiproliferative activity against human HeLa cells after 72 hrs by MTT assay; type: functional, cell-based
[26] = tested on: MDA-MB-231; experiment: Induction of apoptosis in human MDA-MB-231 cells assessed as increase in cleave caspase-8 level up to 10 uM measured after 24 hrs by Western blot analysis; type: functional, cell-based
[27] = tested on: HCC1937; experiment: Antiproliferative activity against human HCC1937 cells after 3 days by MTT assay; type: functional, cell-based; settings: HCC1937, 72 h
[28] = tested on: Raji; experiment: Antiproliferative activity against human Raji cells after 3 days by MTT assay; type: functional, cell-based; settings: 72 h

Sequence of Poly [ADP-ribose] polymerase 2 (Q9UGN5 whole entry, the tested form may be a part): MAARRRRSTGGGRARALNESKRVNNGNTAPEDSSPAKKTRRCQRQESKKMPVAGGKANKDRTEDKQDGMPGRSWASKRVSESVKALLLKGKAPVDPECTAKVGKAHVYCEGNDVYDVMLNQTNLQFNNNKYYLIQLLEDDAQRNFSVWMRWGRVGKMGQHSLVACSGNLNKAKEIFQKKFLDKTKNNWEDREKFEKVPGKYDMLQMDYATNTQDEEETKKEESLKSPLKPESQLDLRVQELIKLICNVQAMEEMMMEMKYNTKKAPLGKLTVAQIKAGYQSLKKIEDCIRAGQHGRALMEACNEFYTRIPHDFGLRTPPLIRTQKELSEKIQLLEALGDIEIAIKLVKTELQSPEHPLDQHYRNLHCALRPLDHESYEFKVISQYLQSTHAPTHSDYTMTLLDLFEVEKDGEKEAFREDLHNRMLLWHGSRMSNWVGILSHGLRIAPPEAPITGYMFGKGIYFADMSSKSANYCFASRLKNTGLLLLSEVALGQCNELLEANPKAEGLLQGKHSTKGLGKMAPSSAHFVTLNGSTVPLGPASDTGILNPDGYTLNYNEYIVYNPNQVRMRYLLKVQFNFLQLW
Sequence of Histone deacetylase 1 (Q13547 whole entry): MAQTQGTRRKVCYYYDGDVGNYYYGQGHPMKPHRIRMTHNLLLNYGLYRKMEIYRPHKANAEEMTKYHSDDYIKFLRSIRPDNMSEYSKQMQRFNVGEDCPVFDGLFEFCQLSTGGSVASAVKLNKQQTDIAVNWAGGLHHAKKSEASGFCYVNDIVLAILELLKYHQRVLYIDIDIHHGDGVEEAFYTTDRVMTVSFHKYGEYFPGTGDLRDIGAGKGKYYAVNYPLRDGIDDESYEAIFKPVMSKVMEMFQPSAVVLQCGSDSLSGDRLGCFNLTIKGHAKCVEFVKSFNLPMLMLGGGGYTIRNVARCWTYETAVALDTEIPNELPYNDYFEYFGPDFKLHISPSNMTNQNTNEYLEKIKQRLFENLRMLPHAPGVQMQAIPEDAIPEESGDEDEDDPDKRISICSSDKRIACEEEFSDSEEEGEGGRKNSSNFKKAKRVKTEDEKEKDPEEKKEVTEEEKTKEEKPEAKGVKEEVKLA
Sequence of Poly [ADP-ribose] polymerase 1 (P09874 whole entry): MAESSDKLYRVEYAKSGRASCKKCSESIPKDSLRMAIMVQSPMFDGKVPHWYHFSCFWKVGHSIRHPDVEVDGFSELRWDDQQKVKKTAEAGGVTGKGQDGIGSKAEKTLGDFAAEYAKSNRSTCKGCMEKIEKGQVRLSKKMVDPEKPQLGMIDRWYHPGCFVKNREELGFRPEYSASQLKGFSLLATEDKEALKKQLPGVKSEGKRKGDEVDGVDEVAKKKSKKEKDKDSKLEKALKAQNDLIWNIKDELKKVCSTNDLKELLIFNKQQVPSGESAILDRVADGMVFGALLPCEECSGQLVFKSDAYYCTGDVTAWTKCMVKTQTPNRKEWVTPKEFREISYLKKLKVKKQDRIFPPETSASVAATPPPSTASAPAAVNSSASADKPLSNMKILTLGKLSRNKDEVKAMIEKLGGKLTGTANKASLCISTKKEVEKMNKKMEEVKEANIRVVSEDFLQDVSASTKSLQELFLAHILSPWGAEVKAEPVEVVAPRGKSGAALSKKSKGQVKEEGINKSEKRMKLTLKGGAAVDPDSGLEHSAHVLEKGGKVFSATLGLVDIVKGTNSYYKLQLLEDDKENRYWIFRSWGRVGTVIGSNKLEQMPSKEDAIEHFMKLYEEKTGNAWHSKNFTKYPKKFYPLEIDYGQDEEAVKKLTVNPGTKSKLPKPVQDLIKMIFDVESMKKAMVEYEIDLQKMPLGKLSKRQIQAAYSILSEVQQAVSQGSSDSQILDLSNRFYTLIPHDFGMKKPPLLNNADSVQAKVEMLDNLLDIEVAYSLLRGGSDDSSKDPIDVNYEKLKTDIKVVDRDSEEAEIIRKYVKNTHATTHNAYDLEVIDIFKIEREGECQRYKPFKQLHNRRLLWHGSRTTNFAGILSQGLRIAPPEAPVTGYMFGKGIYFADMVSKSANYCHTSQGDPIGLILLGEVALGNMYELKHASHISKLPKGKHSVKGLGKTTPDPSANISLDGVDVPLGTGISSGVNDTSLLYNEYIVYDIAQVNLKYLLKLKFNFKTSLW

`O=C(/C=C/c1ccc(CCNC(=O)c2cc(Cc3n[nH]c(=O)c4ccccc34)ccc2F)cc1)NO` was tested, and the Activity [1] was “Active”, the “Ratio IC50” value [2] was 7 and the Activity [3] was 0.447%. The IC50 [4] was 4500 nM, the Activity [5] was “Dose-dependent effect” and the Activity [6] was “Active”. It also gave an Activity [7] of 33.5%, a viability at 5 µM [8] of 35.1% and an Activity [9] of 10.4%. The Activity [10] was 2.79%, the Activity [11] was 47% and the IC50 [12] was 27.3 nM. The inhibition [13] was “Active”, the IC50 [14] was 8650 nM and the Activity [15] was “Active”. The viability at 10 µM [16] was 6.79%, the IC50 [17] was 5.02 nM and the IC50 [18] was 2140 nM. It also gave an Activity [19] of 2.29%, an Activity [20] of 8.03% and an IC50 [21] of 3550 nM. For the same molecule, the IC50 [22] was 68.2 nM, the Activity [23] was 45.8% and the Activity [24] was “Active”. For the same molecule, the IC50 [25] was 5100 nM, the Activity [26] was “Active” and the IC50 [27] was 2020 nM. For the same molecule, the IC50 [28] was 1290 nM.

From ChEMBL document CHEMBL4052667 (Bioorg Med Chem, 2017)
